Data on 17 compounds can be found in patent publication US7659270B2, “Hepatitis C virus inhibitors” (Bristol-Myers Squibb Company, priority 2006, dated 2010).

As usually defined, the EC50 is the concentration needed to bring the measured effect to its halfway point.

In the assay the test system is HCV 1b-377-neo replicon cells. Put plainly: HCV replicon assay (HCV 1b-377-neo replicon cells). The assay is classed as cell-based, Hepatitis C virus genotype 1b. The settings on record: Hepatitis C virus, read-out: EC50 range against HCV 1b (Range). As to the method: An HCV Replion assay was utilized in the present disclosure, and was prepared, conducted and validated as described in commonly owned PCT/US2006/022197 and in O'Boyle et. al. Antimicrob Agents Chemother. April 2005;49(4): 1346-53.
HCV 1b-377-neo replicon cells were used to test the currently described compound series as well as cells resistant to compound A due to a Y2065H mutation in NS5A (described in application PCT/US2006/022197). The compounds tested were determined to have more than 10-fold less inhibitory activity on cells resistant to compound A than wild-type cells indicating a related mechanism of action between the two compound series. Thus, the compounds of the present disclosure can be effective to inhibit the function of the HCV NS5A protein and are understood to be as effective in combinations as previously described in application PCT/US2006/022197 and commonly owned WO/04014852. Further, the compounds of the present disclosure can be effective against the HCV 1b genotype. It should also be understood that the compounds of the present disclosure can inhibit multiple genotypes of HCV. […] In one embodiment compounds of the present disclosure are active against the 1a, 1b, 2a, 2b, 3a, 4a, and 5a genotypes.

For `CO[C@@H](C(=O)N1CCC[C@H]1c1ncc(-c2ccc(-c3ccc(-c4cnc([C@@H]5CCCN5C(=O)[C@H](OC)c5ccccc5)[nH]4)cn3)cc2)[nH]1)c1ccccc1` [Example 135, 5-(2-((2S)-1-((2R)-2-methoxy-2-phenylacetyl)-2-pyrrolidinyl)-1H-imidazol-5-yl)-2-(4-(2-((2S)-1-((2R)-2-methoxy-2-phenylacetyl)-2-pyrrolidinyl)-1H-imidazol-5-yl)phenyl)pyridine], the EC50 fell in the range of 0.01 to 0.999 nM. Regarding `Cc1cc(-c2cnc([C@@H]3CCCN3C(=O)[C@@H](c3ccccc3)N(C)C)[nH]2)ccc1-c1ccc(-c2cnc([C@@H]3CCCN3C(=O)[C@@H](c3ccccc3)N(C)C)[nH]2)cn1` [Example 136, (1R)-2-((2S)-2-(5-(6-(4-(2-((2S)-1-((2R)-2-(dimethylamino)-2-phenylacetyl)-2-pyrrolidinyl)-1H-imidazol-5-yl)-2-methylphenyl)-3-pyridinyl)-1H-imidazol-2-yl)-1-pyrrolidinyl)-N,N-dimethyl-2-oxo-1-phenylethanamine], the EC50 lay within 0.01 to 0.999 nM.

`COC(=O)N[C@@H](C(=O)N1CCC[C@H]1c1ncc(-c2ccc(-c3ccc(-c4cnc([C@@H]5CCCN5C(=O)[C@H](NC(=O)OC)c5ccccc5)[nH]4)cc3C)nc2)[nH]1)c1ccccc1` [Example 138, methyl((1R)-2-((2S)-2-(5-(6-(4-(2-((2S)-1-((2R)-2-((methoxycarbonyl)amino)-2-phenylacetyl)-2-pyrrolidinyl)-1H-imidazol-5-yl)-2-methylphenyl)-3-pyridinyl)-1H-imidazol-2-yl)-1-pyrrolidinyl)-2-oxo-1-phenylethyl)carbamate]: the half-maximal effective concentration (EC50) lay in the range of 0.01 to 0.999 nM. The result for `CC(=O)N[C@@H](C(=O)N1CCC[C@H]1c1ncc(-c2ccc(-c3ccc(-c4cnc([C@@H]5CCCN5C(=O)[C@H](NC(C)=O)c5ccccc5)[nH]4)cn3)cc2)[nH]1)c1ccccc1` [Example 139, N-((1R)-2-((2S)-2-(5-(6-(4-(2-((2S)-1-((2R)-2-acetamido-2-phenylacetyl)-2-pyrrolidinyl)-1H-imidazol-5-yl)phenyl)-3-pyridinyl)-1H-imidazol-2-yl)-1-pyrrolidinyl)-2-oxo-1-phenylethyl)acetamide] reads 0.01 to 0.999 nM; that for `COC(=O)N[C@@H](C(=O)N1CCC[C@H]1c1ncc(-c2ccc(-c3ccc(-c4cnc([C@@H]5CCCN5C(=O)[C@@H](c5ccccc5)N(C)C)[nH]4)cn3)cc2)[nH]1)c1ccccc1` [Example 140, methyl((1R)-2-((2S)-2-(5-(4-(5-(2-((2S)-1-((2R)-2-(dimethylamino)-2-phenylacetyl)-2-pyrrolidinyl)-1H-imidazol-5-yl)-2-pyridinyl)phenyl)-1H-imidazol-2-yl)-1-pyrrolidinyl)-2-oxo-1-phenylethyl)carbamate], 0.01 to 0.999 nM. Take `COC(=O)N[C@@H](C(=O)N1CCC[C@H]1c1ncc(-c2ccc(-c3ccc(-c4cnc([C@@H]5CCCN5C(=O)[C@H]5CCCO5)[nH]4)cn3)cc2)[nH]1)c1ccccc1` [Example 141, methyl ((1R)-2-oxo-1-phenyl-2-((2S)-2-(5-(4-(5-(2-((2S)-1-((2R)-tetrahydro-2-furanylcarbonyl)-2-pyrrolidinyl)-1H-imidazol-5-yl)-2-pyridinyl)phenyl)-1H-imidazol-2-yl)-1-pyrrolidinyl)ethyl)carbamate]: the EC50 is 0.01 to 0.999 nM. `COC(=O)N[C@@H](C(=O)N1CCC[C@H]1c1ncc(-c2ccc(-c3ccc(-c4cnc([C@@H]5CCCN5C(=O)C5CCN(C)CC5)[nH]4)cn3)cc2)[nH]1)c1ccccc1` [Example 142, methyl ((1R)-2-((2S)-2-(5-(4-(5-(2-((2S)-1-((1-methyl-4-piperidinyl)carbonyl)-2-pyrrolidinyl)-1H-imidazol-5-yl)-2-pyridinyl)phenyl)-1H-imidazol-2-yl)-1-pyrrolidinyl)-2-oxo-1-phenylethyl)carbamate]: the EC50 was in the range of 1 to 99 nM. Consider `COC(=O)N[C@@H](C(=O)N1CCC[C@H]1c1ncc(-c2ccc(-c3ccc(-c4cnc([C@@H]5CCCN5C(=O)Cc5cccnc5)[nH]4)cn3)cc2)[nH]1)c1ccccc1` [Example 143, methyl ((1R)-2-oxo-1-phenyl-2-((2S)-2-(5-(4-(5-(2-((2S)-1-(3-pyridinylacetyl)-2-pyrrolidinyl)-1H-imidazol-5-yl)-2-pyridinyl)phenyl)-1H-imidazol-2-yl)-1-pyrrolidinyl)ethyl)carbamate], for which the EC50 is 0.01 to 0.999 nM. For the compound `COC(=O)N[C@@H](C(=O)N1CCC[C@H]1c1ncc(-c2ccc(-c3ccc(-c4cnc([C@@H]5CCCN5C(=O)N5CCOCC5)[nH]4)cn3)cc2)[nH]1)c1ccccc1` [Example 144, methyl((1R)-2-((2S)-2-(5-(4-(5-(2-((2S)-1-(4-morpholinylcarbonyl)-2-pyrrolidinyl)-1H-imidazol-5-yl)-2-pyridinyl)phenyl)-1H-imidazol-2-yl)-1-pyrrolidinyl)-2-oxo-1-phenylethyl)carbamate], the EC50 is 0.01 to 0.999 nM. Consider `COC(=O)N[C@@H](C(=O)N1CCC[C@H]1c1ncc(-c2ccc(-c3ccc(-c4cnc([C@@H]5CCCN5C(=O)[C@H](NC(=O)OC)c5ccccc5)[nH]4)cn3)nc2)[nH]1)c1ccccc1` [Example 145, dimethyl(2,2′-bipyridine-5,5′-diylbis(1H-imidazole-5,2-diyl(2S)-2,1-pyrrolidinediyl((1R)-2-oxo-1-phenyl-2,1-ethanediyl)))biscarbamate], for which the EC50 fell in the range of 0.01 to 0.999 nM.

Regarding `CN(C)[C@@H](C(=O)N1CCC[C@H]1c1ncc(-c2ccc(-c3ccc(-c4cnc([C@@H]5CCCN5C(=O)[C@@H](c5ccccc5)N(C)C)[nH]4)nc3)cc2)[nH]1)c1ccccc1` [Example 146, (1R)-2-((2S)-2-(5-(5-(4-(2-((2S)-1-((2R)-2-(dimethylamino)-2-phenylacetyl)-2-pyrrolidinyl)-1H-imidazol-5-yl)phenyl)-2-pyridinyl)-1H-imidazol-2-yl)-1-pyrrolidinyl)-N,N-dimethyl-2-oxo-1-phenylethanamine], the EC50 fell in the range of 0.01 to 0.999 nM. `COC(=O)N[C@@H](C(=O)N1CCC[C@H]1c1ncc(-c2ccc(-c3ccc(-c4cnc([C@@H]5CCCN5C(=O)[C@H](NC(=O)OC)c5ccccc5)[nH]4)nc3)cc2)[nH]1)c1ccccc1` [Example 147, methyl((1R)-2-((2S)-2-(5-(5-(4-(2-((2S)-1-((2R)-2-((methoxycarbonyl)amino)-2-phenylacetyl)-2-pyrrolidinyl)-1H-imidazol-5-yl)phenyl)-2-pyridinyl)-1H-imidazol-2-yl)-1-pyrrolidinyl)-2-oxo-1-phenylethyl)carbamate]: the EC50 was 0.01 to 0.999 nM.

`CN(C)[C@@H](C(=O)N1CSC[C@H]1c1ncc(-c2ccc(-c3ccc(-c4cnc([C@@H]5CSCN5C(=O)[C@@H](c5ccccc5)N(C)C)[nH]4)cc3)cc2)[nH]1)c1ccccc1` [Example 148, (1R,1′R)-2,2′-(4,4′-biphenyldiylbis(1H-imidazole-5,2-diyl(4R)-1,3-thiazolidine-4,3-diyl))bis(N,N-dimethyl-2-oxo-1-phenylethanamine)]: the EC50 was 1 to 99 nM. Consider `CN(C)[C@@H](C(=O)N1CCC[C@H]1c1ncc(-c2ccc(-c3ncc(-c4cnc([C@@H]5CCCN5C(=O)[C@@H](c5ccccc5)N(C)C)[nH]4)cn3)cc2)[nH]1)c1ccccc1` [Example 152j-1, (1R)-2-((2S)-2-(5-(2-(4-(2-((2S)-1-((2R)-2-(dimethylamino)-2-phenylacetyl)-2-pyrrolidinyl)-1H-imidazol-5-yl)phenyl)-5-pyrimidinyl)-1H-imidazol-2-yl)-1-pyrrolidinyl)-N,N-dimethyl-2-oxo-1-phenylethanamine], for which the EC50 is 1 to 99 nM. The same measure for `COC(=O)N[C@@H](C(=O)N1CCC[C@H]1c1ncc(-c2ccc(-c3ncc(-c4cnc([C@@H]5CCCN5C(=O)[C@H](NC(=O)OC)c5ccccc5)[nH]4)cn3)cc2)[nH]1)c1ccccc1` [Example 152j-2, methyl ((1R)-2-((2S)-2-(5-(2-(4-(2-((2S)-1-((2R)-2-((methoxycarbonyl)a-mino)-2-phenylacetyl)-2-pyrrolidinyl)-1H-imidazol-5-yl)phenyl)-5-pyrimidinyl)-1H-imidazol-2-yl)-1-pyrrolidinyl)-2-oxo-1-phenylethyl)carba-mate]: 0.01 to 0.999 nM. With `COC(=O)N[C@@H](C(=O)N1CCC[C@H]1c1ncc(-c2ccc(-c3ncc(-c4cnc([C@@H]5CCCN5C(=O)Cc5cccnc5)[nH]4)cn3)cc2)[nH]1)c1ccccc1` [Example 152j-3, methyl ((1R)-2-oxo-1-phenyl-2-((2S)-2-(5-(4-(5-(2-((2S)-1-(3-pyridinylacetyl)-2-pyrrolidinyl)-1H-imidazol-5-yl)-2-pyrimidinyl)phenyl)-1H-imidazol-2-yl)-1-pyrrolidinyl)ethyl)car-bamate], the EC50 was 0.01 to 0.999 nM.

With `O=C([C@@H](c1ccccc1)N1CCCCC1)N1CCC[C@H]1c1ncc(-c2ccc(-c3ncc(-c4cnc([C@@H]5CCCN5C(=O)[C@@H](c5ccccc5)N5CCCCC5)[nH]4)cn3)cc2)[nH]1` [Example 152j-5, 5-(2-((2S)-1-((2R)-2-phenyl-2-(1-piperidinyl)acetyl)-2-pyrrolidinyl)-1H-imidazol-5-yl)-2-(4-(2-((2S)-1-((2R)-2-phenyl-2-(1-piperidinyl)acetyl)-2-pyrrolidinyl)-1H-imidazol-4-yl)phenyl)pyrimidine], the EC50 is 0.01 to 0.999 nM.
